The values below come from ChEMBL document CHEMBL1201862, “PubChem BioAssay data set” (2004).

SMILES strings stand for the structures.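 The compound was tested at five concentrations on cells cultured in 96-well plates, with a 48-hour exposure period. GI50: concentration for 50% inhibition of growth.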 Activity calls are given as the source filed them. No stated cut-off is given here; in the data, active = GI50 up to about 1.1 µM and inactive = higher.

What all share (experiment): NCI tumour cell line growth inhibition, 48 h
For assay [1], the system named is 786-0.
Assay [2] relates to A498.
Assay [3] concerns ACHN.
The test system of assay [4] is CCRF-CEM.
Assay [5] relates to COLO 205.
Assay [6] concerns HCT-116.
Assay [7] deals with HCT-15.
Assay [8] deals with IGROV-1.
Assay [9] relates to MOLT-4.
Assay [10] deals with NCI-H23.
For assay [11], the system named is OVCAR-4.
In assay [12] the test system is OVCAR-5.
Assay [13] has as its system SF-539.
Assay [14] concerns SK-MEL-28.
For assay [15], the system named is SK-MEL-5.
Assay [16] relates to SNB-19.
For assay [17], the system named is UACC-257.
The test system of assay [18] is UO-31.
Assay [19] concerns SF-268.

For `COc1cccc(-c2[nH]c3cc4c(cc3c(=O)c2C(=O)O)OCO4)c1`, the GI50 is 44.8 µM (inactive) in assay [1]; 34.4 µM (inactive) in [2]; 86.7 µM (inactive) in [3]; 27.4 µM (inactive) in assay [4]; 26.5 µM (inactive) in [5]; 32.8 µM (inactive) in assay [6]. In addition, the GI50 is 28.4 µM in assay [7]; 37.8 µM (inactive) in assay [8]; 24.2 µM (inactive) in [9]; 31.9 µM (inactive) in assay [10]; 28.6 µM (inactive) in [11]; > 100 µM (inactive) in [12]. Besides, the GI50 was 28.8 µM (inactive) in [13]; 37 µM (inactive) in assay [14]; 31 µM (inactive) in assay [15]; 43.4 µM (inactive) in assay [16]; > 100 µM (inactive) in assay [17]; 49.2 µM (inactive) in [18].
Regarding `O=C1OC(c2ccc(O)cc2)(c2ccc(O)cc2)c2ccc(Cl)c3cccc1c23.O=C1OC(c2ccc(O)cc2)(c2ccc(O)cc2)c2cccc3c(Cl)ccc1c23`, the GI50 in assay [2] was 19.1 µM (inactive); in assay [3], 13.9 µM (inactive); in assay [4], 15.5 µM (inactive); in assay [5], 1.03 µM (active); in assay [6] it was 9.46 µM (inactive); in assay [7], 10.8 µM. Also, the GI50 in assay [8] was 12.5 µM (inactive); in assay [10], 11.1 µM (inactive); in [11], 0.0384 µM (active); in assay [12], 9.84 µM (inactive); in assay [19], 15.9 µM (inactive); in assay [13], 10.7 µM (inactive). In addition, the GI50 in assay [14] was 4.09 µM (inactive); in assay [15], 12.7 µM (inactive); in assay [16], 23.1 µM (inactive); in assay [17], 22.2 µM (inactive); in [18] it was 23 µM (inactive).
As for `COc1ccc(CCC2NCCc3cc(OC)c(OC)cc32)cc1` (stereo not given), the GI50 is > 100 µM (inactive) in [1]; > 100 µM (inactive) in assay [2]; > 100 µM (inactive) in assay [3]; > 100 µM (inactive) in assay [4]; > 100 µM (inactive) in [6]; above 100 µM in assay [7]. Besides, the GI50 was > 100 µM (inactive) in assay [9]; > 100 µM (inactive) in assay [10]; 25.3 µM (inactive) in [11]; > 100 µM (inactive) in [12]; > 100 µM (inactive) in assay [19]; > 100 µM (inactive) in [13]. Also, the GI50 was > 100 µM (inactive) in [14]; > 100 µM (inactive) in assay [15]; > 100 µM (inactive) in assay [16]; > 100 µM (inactive) in assay [17]; 88.1 µM (inactive) in [18].
In the case of `COC1CC(=O)C2C(=O)N(c3ccccc3)C(=O)C23C(C(=O)c2ccccc2)=C(C)NC13O` (stereo not given), the GI50 in assay [1] was 2.12 µM (inactive); in assay [2], 17.2 µM (inactive); in [3], 12.9 µM (inactive); in assay [4], 3.69 µM (inactive); in assay [5] it was 12.3 µM (inactive); in assay [6], 9.2 µM (inactive). Besides, the GI50 was 8.49 µM in [7]; 10.4 µM (inactive) in assay [8]; 15.3 µM (inactive) in [10]; 4.92 µM (inactive) in assay [11]; 18.9 µM (inactive) in assay [12]; 3.84 µM (inactive) in assay [19]. Also, the GI50 is 5.32 µM (inactive) in [13]; 11 µM (inactive) in assay [14]; 18.6 µM (inactive) in assay [15]; 21.4 µM (inactive) in assay [16]; 22.9 µM (inactive) in assay [17]; 11.4 µM (inactive) in assay [18].
